The source of these data is US20250382289A1, “PYRAZOLOPYRIDINE DERIVATIVE AND APPLICATION THEREOF IN MEDICINE” (XIZANG HAISCO PHARMACEUTICAL CO., LTD., priority 2022, published 2025).

Molecules are shown by their SMILES. Read-outs that look alike come from different tables or passages of the source.

In data set [1] the test system is MDA-MB-436 cells. Briefly: Clone formation test of MDA-MB-436 cells. In kind it is cell-based. Particulars: 14 days, crystal violet, OD 570 nm, read-out: IC50 (nM), inhibitory activity on MDA-MB-436 cell clones. How it is done:
In this experiment, MDA-MB-436 cells were treated by adding a test compound to detect the ability of cell clone formation. At the beginning of the experiment, MDA-MB-436 cells (ATCC, HTB-130) were added to a 96-well plate (Corning, 3599), with 500 cells per well, and they were subjected to adherent culture overnight. The next day, the compound diluted in a gradient was added, and culture was continued in a […] incubator at 37° C. On the 7th day, the old culture medium was discarded, and the test compound diluted in a gradient was added again. At the 14th day, the 96-well plate was taken out, the culture liquid was discarded, and cell clones were detected by Crystal violet Assay kit. PHERAstar FSX microplate reader (BMG LABTECH) was used for detection of OD at 570 nm. The IC50 value was calculated using GraphPad Prism software.

The target of data set [2] is USP1/UAF1 (Homo sapiens (Human), UniProt O94782). Briefly: Inhibitory activity on USP1/UAF1 enzymology (ubiquitin rhodamine 110 substrate). In kind it is biochemical. Particulars: 0.5 nM USP1/UAF1, 500 nM ubiquitin rhodamine 110. As for the experimental part:
Ubiquitin rhodamine 110 was used as a substrate to detect the activity of the deubiquitinating enzyme USP1/UAF1 after drug treatment. The total test system was 20 μl, and the test buffer comprises 50 mM Tris-HCl (pH 7.8), 0.5 mM EDTA, 0.01% Bovine Serum Albumin, 1 mM DTT, and 0.01% Tween-20. At the beginning of the experiment, 0.5 nM USP1/UAF1 (Bio-Techne, E-568-050) protein was added to a 384-well plate (PerkinElmer, 6008269), and the test compound diluted in a gradient was then added. After incubation at room temperature for 10 min, 500 nM ubiquitin rhodamine 110 (Bio-Techne, U-555-050) was added, and the mixture was incubated at room temperature for 20 min. Enspire™ Multilabel Reader microplate reader (PerkinElmer) was used for detection at excitation light of 485 nm/emission light of 535 nm. The IC50 value was calculated using GraphPad Prism software.

The nature of data set [3]: Pharmacokinetic test in mice. The class given is in vivo, ICR mice. Conditions: plasma, i.g. 10 mg/kg. As for the experimental part:
Experimental animals: Male ICR mice, 25-30 g, were purchased from Chengdu Ddossy Experimental Animals Co., Ltd.
Experimental design: On the day of the experiment, the ICR mice were randomly grouped according to their body weights. The animals were fasted with water available for 12 to 14 h one day before the administration, and were fed 4 h after the administration.
Before and after the administration, blood was taken from the orbit of the animals at specified time points and placed in an EDTAK2 centrifuge tube. The blood was centrifuged at 5000 rpm and 4° C. for 10 min to collect plasma. The blood collection time points for the intravenous group and intragastric administration group were: 0, 5 min, 15 min, 30 min, 1 h, 2 h, 4 h, 7 h, and 24 h. Before analysis and detection, all samples were stored below −60° C. The samples were analyzed quantitatively by LC-MS/MS.

A short description of data set [4]: Pharmacokinetic test in beagle dogs. The class given is in vivo. Conditions: i.g. 5 mg/kg. How it is done:
Experimental objective: a single dose of test compounds was administered to beagle dogs intravenously and intragastrically, and the concentrations of the test compounds in plasma of the beagle dogs were measured to evaluate pharmacokinetic characteristics of the test compounds in the beagle dogs.
Experimental animals: male beagle dogs, about 8-11 kg, were purchased from Beijing Marshall Biotechnology Co., Ltd.
Experimental method: On the day of the experiment, the beagle dogs were randomly grouped according to their body weights. The animals were fasted but with water available for 14 to 18 hours one day before administration, and were fed 4 hours after administration. The administration was performed based on the information in the following table.
Vehicle for intravenous administration: 5% DMA+5% Solutol+90% Saline; Vehicle for intragastric administration: 0.5% MC
(DMA: dimethylacetamide; Solutol: polyethylene glycol-60-hydroxystearate; Saline: physiological saline; MC: Methylcellulose solution)
Sampling: Before and after the administration, blood was taken from the jugular veins or limb veins, and placed in an EDTAK2 centrifuge tube. Centrifugation was performed at 5000 rpm at 4° C. for 10 min, and plasma was collected.
Time points for blood collection: 0, 5 min, 15 min, 30 min, 1 h, 2 h, 4 h, 6 h, 8 h, 10 h, 12 h, 24 h, 48 h, and 72 h. Before analysis and detection, all the samples were stored at −60° C. or lower. The samples were analyzed quantitatively by LC-MS/MS.

Where [5] appears, read: Homo sapiens, MDA-MB-436, 336 h.

USP1/UAF1, sequence (O94782 whole entry): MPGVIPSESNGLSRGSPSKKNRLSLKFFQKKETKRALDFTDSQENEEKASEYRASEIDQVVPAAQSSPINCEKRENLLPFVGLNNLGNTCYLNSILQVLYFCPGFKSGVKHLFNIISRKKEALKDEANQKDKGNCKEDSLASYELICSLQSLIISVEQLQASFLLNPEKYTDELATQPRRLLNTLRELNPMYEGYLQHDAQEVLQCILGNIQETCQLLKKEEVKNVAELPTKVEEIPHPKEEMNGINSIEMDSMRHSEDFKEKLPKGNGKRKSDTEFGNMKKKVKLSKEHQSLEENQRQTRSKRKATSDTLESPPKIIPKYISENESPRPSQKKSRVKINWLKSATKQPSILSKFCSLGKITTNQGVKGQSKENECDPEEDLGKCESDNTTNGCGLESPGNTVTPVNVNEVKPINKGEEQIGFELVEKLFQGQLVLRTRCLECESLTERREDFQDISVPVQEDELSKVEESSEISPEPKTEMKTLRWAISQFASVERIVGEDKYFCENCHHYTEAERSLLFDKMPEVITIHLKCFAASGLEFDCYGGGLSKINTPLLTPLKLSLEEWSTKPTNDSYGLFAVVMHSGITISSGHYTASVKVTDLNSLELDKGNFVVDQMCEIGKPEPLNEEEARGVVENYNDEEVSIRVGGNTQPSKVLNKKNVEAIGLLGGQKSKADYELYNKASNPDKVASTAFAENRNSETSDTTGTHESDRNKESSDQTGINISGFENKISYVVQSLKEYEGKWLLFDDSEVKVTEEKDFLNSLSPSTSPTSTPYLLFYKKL
USP1/UAF1, sequence (Q8TAF3 whole entry partner): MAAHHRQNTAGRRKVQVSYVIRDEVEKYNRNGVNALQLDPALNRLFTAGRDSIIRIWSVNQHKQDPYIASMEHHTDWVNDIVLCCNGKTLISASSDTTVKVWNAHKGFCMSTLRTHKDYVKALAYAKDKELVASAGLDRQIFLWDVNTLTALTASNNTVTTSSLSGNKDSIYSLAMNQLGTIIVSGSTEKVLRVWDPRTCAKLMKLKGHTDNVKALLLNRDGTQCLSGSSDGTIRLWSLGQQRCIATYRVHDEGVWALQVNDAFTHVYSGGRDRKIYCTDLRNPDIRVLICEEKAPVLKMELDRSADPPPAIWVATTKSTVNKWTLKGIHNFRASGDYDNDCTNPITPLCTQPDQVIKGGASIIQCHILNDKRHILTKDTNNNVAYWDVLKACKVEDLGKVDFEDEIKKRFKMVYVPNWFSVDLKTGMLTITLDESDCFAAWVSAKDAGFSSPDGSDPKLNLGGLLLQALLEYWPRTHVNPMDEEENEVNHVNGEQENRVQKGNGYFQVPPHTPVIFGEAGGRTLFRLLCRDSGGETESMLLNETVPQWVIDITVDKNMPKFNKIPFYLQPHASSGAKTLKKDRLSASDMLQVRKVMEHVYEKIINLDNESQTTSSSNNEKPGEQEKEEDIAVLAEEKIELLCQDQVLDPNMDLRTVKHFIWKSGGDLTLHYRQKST

By IC50 is commonly meant the midpoint of a concentration-inhibition curve. Regarding `CC(C)n1cc(C(F)(F)F)nc1C12CCC(Cn3ncc4cnc(-c5c(OC(F)F)ncnc5C5CC5)c(F)c43)(CC1)CC2` [Compound 4], the results for the half-inhibitory concentration (IC50) in data set [1] and in data set [2] were below 200 nM and below 20 nM, respectively.
As to `COc1ncnc(C2CC2)c1-c1ncc2cnn(Cc3ccc(-c4nc(C(F)(F)F)c5n4CC4(CC4)C5)cc3)c2c1F` [Compound 21], the Oral absorption entry in data set [3] is on record as “Yes”.
In the case of `CC(C)n1cc(C(F)(F)F)nc1-c1ccc(Cn2ncc3cnc(-c4c(OC(F)F)ncnc4C4CC4)c(F)c32)cc1` [Compound 20], in data set [1] (setting [5]), the concentration for half-maximal inhibition (IC50) is below 200 nM.
On to `COc1ncnc(C2CC2)c1-c1ncc2cnn(Cc3ccc(-c4nc(C(F)(F)F)cn4C(C)C)cc3)c2c1F` [Compound 1], for which the IC50 in data set [1] was below 200 nM; in data set [2], below 20 nM. Also, the Oral absorption result in data set [3] is on record as “Yes”.
The bioavailability is the share of a dose that reaches the circulation, judged against a reference dose that is usually intravenous. A high value points to much systemic uptake. In data set [4] (male, dog, plasma, po), `COc1ncnc(C2CC2)c1-c1ncc2cnn(Cc3ccc(-c4nc(C(F)(F)F)cn4C(C)C)cc3)c2n1` [Control compound A, reference compound] gave a bioavailability of 15.8%. In addition, in data set [4] (male, dog, po, plasma, read-out: AUC0-t), the AUC0-t amounted to 994 ng·h/mL.
For `[2H]C([2H])([2H])C([2H])(n1cc(C(F)(F)F)nc1C12CCC(Cn3ncc4cnc(-c5c(OC(F)F)ncnc5C5CC5)c(F)c43)(CC1)CC2)C([2H])([2H])[2H]` [Compound 15], in data set [1] (setting [5]), the IC50 is below 200 nM.
As for `C#CCn1cc(C(F)(F)F)nc1C12CCC(Cn3ncc4cnc(-c5c(OC)ncnc5C5CC5)c(F)c43)(CC1)CC2` [Compound 8], the Oral absorption entry in data set [3] is “Yes”.
As to `Fc1c(-c2c(OC(F)F)ncnc2C2CC2)ncc2cnn(CC34CCC(c5nc(C(F)(F)F)cn5CC5CC5)(CC3)CC4)c12` [Compound 10], the IC50 in data set [1] (setting [5]) is below 200 nM.
As for `C#CCn1cc(C(F)(F)F)nc1-c1ccc(Cn2ncc3cnc(-c4c(OC)ncnc4C4CC4)c(F)c32)cc1` [Compound 16], the IC50 in data set [1] (setting [5]) was below 200 nM; in data set [2] it was below 20 nM. In data set [3], the Oral absorption result is listed as “Yes”.
Take `COc1ncnc(C2CC2)c1-c1ncc2cnn(CC34CCC(c5nc(C(F)(F)F)cn5C(C)C)(CC3)CC4)c2c1F` [Compound 2]: the IC50 in data set [1] is below 200 nM; in data set [2] it was below 20 nM. Further, the Oral absorption result in data set [3] is listed as “Yes”. Besides, in data set [4], the “F (%)” value came out at 41.2%. Moreover, the AUC0-t in data set [4] (plasma) stood at 6302 ng·h/mL.
As to `Fc1c(-c2c(OC(F)F)ncnc2C2CC2)ncc2cnn(Cc3ccc(-c4nc(C(F)(F)F)c5n4CC(F)(F)C5)cc3)c12` [Compound 14], the Oral absorption entry in data set [3] was “Yes”.
The same measure, in the same setting: with `Fc1c(-c2c(OC(F)F)ncnc2C2CC2)ncc2cnn(Cc3ccc(-c4nc(C(F)(F)F)c5n4CC4(CC4)C5)cc3)c12` [Compound 12] the entry was “Yes”.
On to `COc1ncnc(C2CC2)c1-c1ncc2cnn(Cc3ccc(-c4nc(C(F)(F)F)c5n4[C@@H](C)CC5)cc3)c2c1F` [Compound 22], for which the IC50 in data set [1] (setting [5]) was below 200 nM. In addition, in data set [3], the Oral absorption entry is “Yes”.
